According to patent US6479509B1, “Method of promoting smoking cessation” (priority 2000, dated 2002):
Marks after values point to notes of the source that are not given here.

How the values were obtained:
[1] = system: nicotine-induced antinociception; assay: Blockade of nicotine-induced antinociception, tail-flick test; format: in vivo, mice; details: blocking antinociception of nicotine 2.5 mg/kg, mice, systemic administration
Description: Anitinociception. The tail-flick method of D'Amour and Smith (1941) as modified by Dewey et al. (1970) was used. A control response (2-4 s) was determined for each animal before treatment, and a test latency was determined after drug administration. To minimize tissue damage, a maximum latency of 10 s was imposed. Antinociceptive response was calculated as percent maximum possible effect (% MPE), where % MPE=[((test-control)/(10-control))×100], Groups of 8 to 12 animals were used for each dose and for each treatment. Mice were tested 5 min after nicotine administration for the dose-response evaluation. Antagonism studies were carried out by pretreating the mice s.c. with either saline or various drugs at different times before nicotine. The animals were tested 5 min after administration of nicotine.
(§1) Data were analyzed statistically by an analysis of variance followed by the Fisher's P least-significant difference multiple comparison test. The null hypothesis was rejected at the […].

[2] = system: nicotine-induced hypothermia; assay: Blockade of nicotine-induced hypothermia (body temperature); format: in vivo, mice; details: @ 32 μmol/hg
Description: Body Temperature. Rectal temperature was measured by a thermistor probe (inserted 24 mm) and digital thermometer (Yellow Springs Instrument Co., Yellow Springs, Ohio). Readings were taken just before and at 30 min after the s.c. injection of nicotine. For antagonism studies, mice were pretreated with either saline or various drugs 10 min before nicotine. The difference in rectal temperature before and after treatment was calculated for each mouse. The ambient temperature of the laboratory varied from 21 to 24° C. from day to day.
as §1

[3] = system: nicotine-induced motor impairment; assay: Blockade of nicotine-induced motor impairment, rotarod test; format: in vivo, mice; details: without nicotine
Description: Motor Coordination. To measure motor coordination, a wooden rod 6 cm in diameter was partitioned into three compartments by circular metal discs (28 cm in diameter) at 18-cm intervals. The rod was attached to a motor and rotated at a rate of 4 rpm. Naive mice were trained until they could remain on the rotarod for 3 min. […] This training took place no longer than 15 min before the s.c. administration of nicotine. Twenty minutes after the injection, mice were placed on the rotarod for 5 min. The amount of time the animals remained on the rotarod was recorded and percent impairment was calculated as % Impairment=[(]-(test time in s/300))×100]. An impairment value of 0% corresponds to the subjects that remained on the rotarod for 5 min (300 s), whereas 100% impairment corresponds to subjects, that fell off the rotarod immediately.
as §1

[4] = system: nicotine-induced seizures; assay: Nicotine-induced seizure activity; format: in vivo, mice
Description: Seizure Activity. Following s.c. injection of nicotine at a dose of 9 mg/kg, each animal was placed in a 30 cm×30 cm Plexiglass cage and observed for 5 min. […] This amount of time was chosen because seizures occur very quickly after nicotine administration. Results are expressed as percentage seizure.

[5] = system: discriminative stimulus effect of nicotine; assay: Nicotine drug discrimination; format: in vivo; details: rats
Description: Rats were individually housed in a temperature-controlled environment and were maintained on a diet (Agway Rodent Chow) that restricted their body weight to approximately 85% of their free feeding weight. Water was available ad libitum in the home cages. A two-lever operant drug nation paradigm (VI 15) was carried out in eight operant chambers (4 Lafayette model 80001 and 4 BRS/LVIE model s 002). Reinforcement was a Bioserv 45-mg precision dustless pellet. Data were collected automatically by two Commodore 64 microcomputers.
Rats were placed in an operant chamber 5 min after injections. […] Animals were required to meet a criterion of three successive days of 80% or greater correct-lever responding before testing was initiated. Injections were given 5 min before placing the animal in the operant chamber. The schedule of injections, was determined using a Latin Square design. Dose-response curves were determined for nicotine 5 min after s.c. injections.

COC(=O)[C@H]1[C@@H](OC(=O)c2ccccc2)C[C@@H]2CC[C@H]1N2C [Cocaine]
AD50 Tail-Flick [1]: 3.2 μmol/hg | Hypothermia, % blockade @ dose [2]: 20% @ 32 | Performance on the rotarod test, by itself [3]: did not significantly alter performance | % Seizures (Mean) ([4]; cocaine 10 mg/kg pretreatment, nicotine 9 mg/kg): 83.3% | % Seizures (Mean) ([4]; cocaine 20 mg/kg pretreatment, nicotine 9 mg/kg, P < .05 from saline/nicotine): 50^c % | % Seizures (Mean) ([4]; cocaine 30 mg/kg pretreatment, nicotine 9 mg/kg, P < .05 from saline/nicotine): 16^c % | AD50, antagonism of nicotine-induced seizures ([4]; mice, estimated): 50 µmol/kg | % Seizures (Mean) ([4]; saline pretreatment, cocaine 20 mg/kg challenge): 0% | Drug discrimination % Test (Mean ± SE) ([5]; cocaine 10 mg/kg pretreatment, nicotine 0.4 mg/kg): 69 ± 8% | Drug discrimination % Test (Mean ± SE) ([5]; saline pretreatment, cocaine 10 mg/kg): 17 ± 7%
